ChEMBL document CHEMBL3045535, “Evaluation of lufenuron as a chemosterilant against fruit flies of the genus Anastrepha (Diptera: Tephritidae)” (2010)
Activity calls are given as the source filed them. The rule behind the calls is not given here.

Tests used:
Anastrepha striata [1] = assay: Effect on fecundity in 7 days old adult female of Anastrepha striata at 30 mg/g treated with diet after 24 hr in presence of untreated adult male of Anastrepha striata; assay type: functional, organism-based
Anastrepha striata [2] = assay: Reduction of fertility in 7 days old adult of Anastrepha striata assessed as reduction of egg hatching at 1 mg/g treated with diet measured after 5 days oviposition; assay type: functional; design: scale not given: the % may be the effect or the level left
Anastrepha striata [3] = assay: Reduction of fertility in 7 days old adult of Anastrepha striata assessed as reduction of egg hatching at 0.5 mg/g treated with diet measured after 7 days oviposition; assay type: functional; design: scale not given: the % may be the effect or the level left
Anastrepha striata [4] = assay: Reduction of fertility in 7 days old adult of Anastrepha striata assessed as reduction of egg hatching at 5 mg/g treated with diet measured after 1 day oviposition; assay type: functional; design: scale not given: the % may be the effect or the level left
Anastrepha serpentina [5] = assay: Reduction of fertility in 7 days old adult of Anastrepha serpentina assessed as reduction of egg hatching at 0.1 mg/g treated with diet measured after 9 days oviposition; assay type: functional; design: scale not given: the % may be the effect or the level left
Anastrepha striata [6] = assay: Reduction of fertility in 7 days old adult of Anastrepha striata assessed as reduction of egg hatching at 30 mg/g treated with diet measured after 3 days oviposition; assay type: functional; design: scale not given: the % may be the effect or the level left
Anastrepha serpentina [7] = assay: Reduction of fertility in 7 days old adult of Anastrepha serpentina assessed as reduction of egg hatching at 10 mg/g treated with diet measured after 5 days oviposition; assay type: functional; design: scale not given: the % may be the effect or the level left
Anastrepha striata [8] = assay: Reduction of fertility in 7 days old adult of Anastrepha striata assessed as reduction of egg hatching at 0.5 mg/g treated with diet measured after 5 days oviposition; assay type: functional; design: scale not given: the % may be the effect or the level left
Anastrepha obliqua [9] = assay: Reduction of fertility in 7 days old adult of Anastrepha obliqua assessed as reduction of egg hatching at 0.1 mg/g treated with diet measured after 3 days oviposition; assay type: functional; design: scale not given: the % may be the effect or the level left
Anastrepha ludens [10] = assay: Reduction of fertility in 7 days old adult of Anastrepha ludens assessed as reduction of egg hatching at 1 mg/g treated with diet measured after 5 days oviposition; assay type: functional; design: scale not given: the % may be the effect or the level left
Anastrepha serpentina [11] = assay: Effect on fecundity in 7 days old adult of Anastrepha serpentina at 0.1 to 30 mg/g treated with diet after 24 hr; assay type: functional, organism-based
Anastrepha serpentina [12] = assay: Reduction of fertility in 7 days old adult of Anastrepha serpentina assessed as reduction of egg hatching at 5 mg/g treated with diet measured after 9 days oviposition; assay type: functional; design: scale not given: the % may be the effect or the level left
Anastrepha striata [13] = assay: Reduction of fertility in 7 days old adult of Anastrepha striata assessed as reduction of egg hatching at 5 mg/g treated with diet measured after 11 days oviposition; assay type: functional; design: scale not given: the % may be the effect or the level left
Anastrepha serpentina [14] = assay: Reduction of fertility in 7 days old adult of Anastrepha serpentina assessed as reduction of egg hatching at 1 mg/g treated with diet measured after 9 days oviposition; assay type: functional; design: scale not given: the % may be the effect or the level left
Anastrepha obliqua [15] = assay: Effect on fertility in 7 days old adult male of Anastrepha obliqua at 30 mg/g treated with diet after 24 hr in presence of untreated adult female of Anastrepha obliqua; assay type: functional, organism-based
Anastrepha striata [16] = assay: Reduction of fertility in 7 days old adult of Anastrepha striata assessed as reduction of egg hatching at 0.1 mg/g treated with diet measured after 3 days oviposition; assay type: functional; design: scale not given: the % may be the effect or the level left
Anastrepha striata [17] = assay: Reduction of fertility in 7 days old adult of Anastrepha striata assessed as reduction of egg hatching at 5 mg/g treated with diet measured after 3 days oviposition; assay type: functional; design: scale not given: the % may be the effect or the level left
Anastrepha ludens [18] = assay: Reduction of fertility in 7 days old adult of Anastrepha ludens assessed as reduction of egg hatching at 30 mg/g treated with diet measured after 7 days oviposition; assay type: functional; design: scale not given: the % may be the effect or the level left
Anastrepha striata [19] = assay: Reduction of fertility in 7 days old adult of Anastrepha striata assessed as reduction of egg hatching at 1 mg/g treated with diet measured after 3 days oviposition; assay type: functional; design: scale not given: the % may be the effect or the level left
Anastrepha obliqua [20] = assay: Reduction of fertility in 7 days old adult of Anastrepha obliqua assessed as reduction of egg hatching at 5 mg/g treated with diet measured after 11 days oviposition; assay type: functional; design: scale not given: the % may be the effect or the level left
Anastrepha obliqua [21] = assay: Reduction of fertility in 7 days old adult of Anastrepha obliqua assessed as reduction of egg hatching at 30 mg/g treated with diet measured after 3 days oviposition; assay type: functional; design: scale not given: the % may be the effect or the level left
Anastrepha serpentina [22] = assay: Reduction of fertility in 7 days old adult of Anastrepha serpentina assessed as reduction of egg hatching at 10 mg/g treated with diet measured after 1 day oviposition; assay type: functional; design: scale not given: the % may be the effect or the level left
Anastrepha striata [23] = assay: Reduction of fertility in 7 days old adult of Anastrepha striata assessed as reduction of egg hatching at 30 mg/g treated with diet measured after 1 day oviposition; assay type: functional; design: scale not given: the % may be the effect or the level left
Anastrepha striata [24] = assay: Reduction of fertility in 7 days old adult of Anastrepha striata assessed as reduction of egg hatching at 0.5 mg/g treated with diet measured after 11 days oviposition; assay type: functional; design: scale not given: the % may be the effect or the level left
Anastrepha ludens [25] = assay: Reduction of fertility in 7 days old adult of Anastrepha ludens assessed as reduction of egg hatching at 1 mg/g treated with diet measured after 7 days oviposition; assay type: functional; design: scale not given: the % may be the effect or the level left
Anastrepha serpentina [26] = assay: Reduction of fertility in 7 days old adult of Anastrepha serpentina assessed as reduction of egg hatching at 10 mg/g treated with diet measured after 9 days oviposition; assay type: functional; design: scale not given: the % may be the effect or the level left
Anastrepha obliqua [27] = assay: Reduction of fertility in 7 days old adult of Anastrepha obliqua assessed as reduction of egg hatching at 0.5 mg/g treated with diet measured after 3 days oviposition; assay type: functional; design: scale not given: the % may be the effect or the level left
Anastrepha serpentina [28] = assay: Reduction of fertility in 7 days old adult of Anastrepha serpentina assessed as reduction of egg hatching at 10 mg/g treated with diet measured after 3 days oviposition; assay type: functional; design: scale not given: the % may be the effect or the level left
Anastrepha serpentina [29] = assay: Reduction of fertility in 7 days old adult of Anastrepha serpentina assessed as reduction of egg hatching at 0.5 mg/g treated with diet measured after 5 days oviposition; assay type: functional; design: scale not given: the % may be the effect or the level left
Anastrepha striata [30] = assay: Effect on fecundity in 7 days old adult male of Anastrepha striata at 30 mg/g treated with diet after 24 hr in presence of untreated adult female of Anastrepha striata; assay type: functional, organism-based
Anastrepha serpentina [31] = assay: Reduction of fertility in 7 days old adult of Anastrepha serpentina assessed as reduction of egg hatching at 1 mg/g treated with diet measured after 5 days oviposition; assay type: functional; design: scale not given: the % may be the effect or the level left
Anastrepha ludens [32] = assay: Effect on fecundity in 7 days old adult of Anastrepha ludens at 0.1 to 30 mg/g treated with diet after 24 hr; assay type: functional, organism-based
Anastrepha striata [33] = assay: Reduction of fertility in 7 days old adult of Anastrepha striata assessed as reduction of egg hatching at 30 mg/g treated with diet measured after 5 days oviposition; assay type: functional; design: scale not given: the % may be the effect or the level left
Anastrepha obliqua [34] = assay: Reduction of fertility in 7 days old adult of Anastrepha obliqua assessed as reduction of egg hatching at 0.1 mg/g treated with diet measured after 9 days oviposition; assay type: functional; design: scale not given: the % may be the effect or the level left
Anastrepha serpentina [35] = assay: Reduction of fertility in 7 days old adult of Anastrepha serpentina assessed as reduction of egg hatching at 0.1 mg/g treated with diet measured after 5 days oviposition; assay type: functional; design: scale not given: the % may be the effect or the level left
Anastrepha serpentina [36] = assay: Reduction of fertility in 7 days old adult of Anastrepha serpentina assessed as reduction of egg hatching at 0.1 mg/g treated with diet measured after 11 days oviposition; assay type: functional; design: scale not given: the % may be the effect or the level left
Anastrepha obliqua [37] = assay: Reduction of fertility in 7 days old adult of Anastrepha obliqua assessed as reduction of egg hatching at 10 mg/g treated with diet measured after 1 day oviposition; assay type: functional; design: scale not given: the % may be the effect or the level left
Anastrepha serpentina [38] = assay: Reduction of fertility in 7 days old adult of Anastrepha serpentina assessed as reduction of egg hatching at 10 mg/g treated with diet measured after 11 days oviposition; assay type: functional; design: scale not given: the % may be the effect or the level left
Anastrepha ludens [39] = assay: Reduction of fertility in 7 days old adult of Anastrepha ludens assessed as reduction of egg hatching at 5 mg/g treated with diet measured after 3 days oviposition; assay type: functional; design: scale not given: the % may be the effect or the level left
Anastrepha ludens [40] = assay: Reduction of fertility in 7 days old adult of Anastrepha ludens assessed as reduction of egg hatching at 10 mg/g treated with diet measured after 7 days oviposition; assay type: functional; design: scale not given: the % may be the effect or the level left
Anastrepha ludens [41] = assay: Reduction of fertility in 7 days old adult of Anastrepha ludens assessed as reduction of egg hatching at 5 mg/g treated with diet measured after 5 days oviposition; assay type: functional; design: scale not given: the % may be the effect or the level left

In the case of `O=C(NC(=O)c1c(F)cccc1F)Nc1cc(Cl)c(OC(F)(F)C(F)C(F)(F)F)cc1Cl` (racemic) [LUFENURON], the Activity (Anastrepha striata [1]) is reported as “inactive”, the Activity (Anastrepha striata [2]) is reported as 4.5% and the Activity (Anastrepha striata [3]) is reported as 19.3%. For the same molecule, the Activity (Anastrepha striata [4]) was 3.3%, the Activity (Anastrepha serpentina [5]) was 81.7% and the Activity (Anastrepha striata [6]) was 8.7%. The Activity (Anastrepha serpentina [7]) was 54.7%, the Activity (Anastrepha striata [8]) was 14% and the Activity (Anastrepha obliqua [9]) was 7.3%. For the same molecule, the Activity (Anastrepha ludens [10]) was 8%, the Activity (Anastrepha serpentina [11]) was “Active” and the Activity (Anastrepha serpentina [12]) was 83.3%. For the same molecule, the Activity (Anastrepha striata [13]) was 6.7%, the Activity (Anastrepha serpentina [14]) was 95.6% and the Activity (Anastrepha obliqua [15]) was “inactive”. It also gave an Activity (Anastrepha striata [16]) of 80%, an Activity (Anastrepha striata [17]) of 4.7% and an Activity (Anastrepha ludens [18]) of 4%. It also gave an Activity (Anastrepha striata [19]) of 8%, an Activity (Anastrepha obliqua [20]) of 0% and an Activity (Anastrepha obliqua [21]) of 0%. It also gave an Activity (Anastrepha serpentina [22]) of 18.3%, an Activity (Anastrepha striata [23]) of 8.7% and an Activity (Anastrepha striata [24]) of 28.7%. It also gave an Activity (Anastrepha ludens [25]) of 20%, an Activity (Anastrepha serpentina [26]) of 85.3% and an Activity (Anastrepha obliqua [27]) of 2.7%. The Activity (Anastrepha serpentina [28]) was 34.4%, the Activity (Anastrepha serpentina [29]) was 93.3% and the Activity (Anastrepha striata [30]) was “inactive”. For the same molecule, the Activity (Anastrepha serpentina [31]) was 71.8%, the Activity (Anastrepha ludens [32]) was “inactive” and the Activity (Anastrepha striata [33]) was 4%. For the same molecule, the Activity (Anastrepha obliqua [34]) was 6%, the Activity (Anastrepha serpentina [35]) was 74.6% and the Activity (Anastrepha serpentina [36]) was 80.3%. For the same molecule, the Activity (Anastrepha obliqua [37]) was 0%, the Activity (Anastrepha serpentina [38]) was 79.3% and the Activity (Anastrepha ludens [39]) was 16%. For the same molecule, the Activity (Anastrepha ludens [40]) was 13.3% and the Activity (Anastrepha ludens [41]) was 20%.
